Assay results reported in patent US9708306B2, “Benzimidazole derivatives and preparation process and pharmaceutical uses thereof” (WUHAN LL SCIENCE AND TECHNOLOGY DEVELOPMENT CO., LTD, priority 2015, dated 2017).
Like-named read-outs stand apart in the source and are kept apart here.

Assays:
[1] = test system: renovascular hypertensive rats; experiment: Effect on reducing blood pressure of renovascular hypertensive rats by single oral administration; type: in vivo, Wistar rats; conditions: for change in vivo at 0.5 mg/kg / inhibition in vivo at 0.5 mg/kg / change in vivo at 1 mg/kg / inhibition in vivo at 1 mg/kg / change in vivo at 2 mg/kg / inhibition in vivo at 2 mg/kg: Rattus norvegicus, single oral administration; for change in vivo at 0.5 mg/kg / change in vivo at 1 mg/kg / change in vivo at 2 mg/kg: RHR, read-out: Variations on heart rate; for inhibition in vivo at 0.5 mg/kg / inhibition in vivo at 1 mg/kg / inhibition in vivo at 2 mg/kg: two-kidney one-clip RHR, measured 1-10 h, read-out: Maximum blood pressure reduction; for blood pressure reduction at 24 hours after the administration / blood pressure reduction effect compared with Azilsartan medoxomil / lasting time of the blood pressure reduction effect compared with Azilsartan medoxomil: renal artery-ligated rat; for blood pressure reduction at 24 hours after the administration: dose not stated; for blood pressure reduction effect compared with Azilsartan medoxomil / lasting time of the blood pressure reduction effect compared with Azilsartan medoxomil: result in words
[2] = test system: spontaneously hypertensive rats (SHR); experiment: Effect on reducing blood pressure of spontaneously hypertensive rats (SHR) by multiple oral administrations; type: in vivo; conditions: for inhibition in vivo at 0.5 mg/kg / inhibition in vivo at 1 mg/kg / inhibition in vivo at 2 mg/kg: Rattus norvegicus; for inhibition in vivo at 0.5 mg/kg / inhibition in vivo at 1 mg/kg / inhibition in vivo at 2 mg/kg / blood pressure reduction effect compared with Azilsartan medoxomil: SHR; for blood pressure reduction effect compared with Azilsartan medoxomil / reduction effects on the heart rate of SHR rats: result in words; for reduction effects on the heart rate of SHR rats: during the whole administration
[3] = test system: normal rats; experiment: Effect on blood pressure of normal rats by single oral administration; type: in vivo, Wistar rats; conditions: Rattus norvegicus, po, single, normal rats; for inhibition in vivo at 0.5 mg/kg / inhibition in vivo at 1 mg/kg / inhibition in vivo at 2 mg/kg: 8 h, read-out: blood pressure reduction at 8 h after the administration; for inhibition in vivo at 0.5 mg/kg / change in vivo at 0.5 mg/kg: 0.5 mg/kg p.o.; for inhibition in vivo at 1 mg/kg / change in vivo at 1 mg/kg: 1.0 mg/kg p.o.; for inhibition in vivo at 2 mg/kg / change in vivo at 2 mg/kg: 2.0 mg/kg p.o.; for change in vivo at 0.5 mg/kg / change in vivo at 1 mg/kg / change in vivo at 2 mg/kg: read-out: variations on heart rate
[4] = 0.5 mg/kg oral once per day, 1 hour after the administration, read-out: Maximum blood pressure reduction, 1st-day administration
[5] = 0.5 mg/kg oral once per day, 1 hour after the administration, read-out: Maximum blood pressure reduction, 7th-day administration
[6] = 0.5 mg/kg oral once per day, 1 hour after the administration, read-out: Maximum blood pressure reduction, 14th-day administration
[7] = 0.5 mg/kg oral, read-out: Heart Rate (effect on reducing heart rate)
[8] = 1.0 mg/kg oral once per day, 1 hour after the administration, read-out: Maximum blood pressure reduction, 1st-day administration
[9] = 1.0 mg/kg oral once per day, 1 hour after the administration, read-out: Maximum blood pressure reduction, 7th-day administration
[10] = 1.0 mg/kg oral once per day, 1 hour after the administration, read-out: Maximum blood pressure reduction, 14th-day administration
[11] = 1.0 mg/kg oral, read-out: Heart Rate (effect on reducing heart rate)
[12] = 2.0 mg/kg oral once per day, 1 hour after the administration, read-out: Maximum blood pressure reduction, 1st-day administration
[13] = 2.0 mg/kg oral once per day, 1 hour after the administration, read-out: Maximum blood pressure reduction, 7th-day administration
[14] = 2.0 mg/kg oral once per day, 1 hour after the administration, read-out: Maximum blood pressure reduction, 14th-day administration
[15] = 2.0 mg/kg oral, read-out: Heart Rate (effect on reducing heart rate)

| Structure (SMILES) | change in vivo at 0.5 mg/kg [1] | inhibition in vivo at 0.5 mg/kg [1] | change in vivo at 1 mg/kg [1] | inhibition in vivo at 1 mg/kg [1] | change in vivo at 2 mg/kg [1] | inhibition in vivo at 2 mg/kg [1] | blood pressure reduction at 24 hours after the administration [1] | blood pressure reduction effect compared with Azilsartan medoxomil [1] | lasting time of the blood pressure reduction effect compared with Azilsartan medoxomil [1] | inhibition in vivo at 0.5 mg/kg [2, 4] | inhibition in vivo at 0.5 mg/kg [2, 5] | inhibition in vivo at 0.5 mg/kg [2, 6] | inhibition in vivo at 0.5 mg/kg [2, 7] | inhibition in vivo at 1 mg/kg [2, 8] | inhibition in vivo at 1 mg/kg [2, 9] | inhibition in vivo at 1 mg/kg [2, 10] | inhibition in vivo at 1 mg/kg [2, 11] | inhibition in vivo at 2 mg/kg [2, 12] | inhibition in vivo at 1 mg/kg [3] | change in vivo at 1 mg/kg [3] | other results |
| --- | --- | --- | --- | --- | --- | --- | --- | --- | --- | --- | --- | --- | --- | --- | --- | --- | --- | --- | --- | --- | --- |
| CCOc1nc2cccc(C(=O)OCc3no[n+]([O-])c3C)c2n1Cc1ccc(-c2ccccc2-c2noc(=O)[nH]2)cc1 [QR01023] | -8 ± 5% | 18 ± 2.3% | -16 ± 7% | 32 ± 8.1% | -23 ± 6% | 42 ± 4.6% | 18% | obviously superior to that of the Azilsartan medoxomil positive drug | close to that of Azilsartan medoxomil | 25 ± 8.2% | 24 ± 7.1% | 25 ± 6.8% | 20 ± 3% | 39 ± 6% | 38 ± 7% | 42 ± 5.3% | 14 ± 4% | 45 ± 7.3% | 3.6 ± 6.1% | 6% | inhibition in vivo at 2 mg/kg [2, 13]: 48 ± 9.5%; inhibition in vivo at 2 mg/kg [2, 14]: 40 ± 8.2%; inhibition in vivo at 2 mg/kg [2, 15]: 23 ± 5%; blood pressure reduction effect compared with Azilsartan medoxomil [2]: obviously superior to that of the Azilsartan medoxomil positive drug; reduction effects on the heart rate of SHR rats [2]: significant reduction effects on the heart rate; inhibition in vivo at 0.5 mg/kg [3]: 5.3 ± 1.4%; inhibition in vivo at 2 mg/kg [3]: 4.3 ± 2.1%; change in vivo at 0.5 mg/kg [3]: -3 ± 2%; change in vivo at 2 mg/kg [3]: -3 ± 5% |
| CCOc1nc2cccc(C(=O)OCOC(=O)OCc3no[n+]([O-])c3C)c2n1Cc1ccc(-c2ccccc2-c2noc(=O)[nH]2)cc1 [QR01020] | -15 ± 3% | 25 ± 4.3% | -28 ± 6% | 34 ± 6.8% | -25 ± 8% | 48 ± 2.6% | 15% | obviously superior to that of the Azilsartan medoxomil positive drug | close to that of Azilsartan medoxomil | 19 ± 6.8% | 18 ± 6.9% | 21 ± 4.6% | 16 ± 4% | 30 ± 5.5% | 32 ± 8.3% | 35 ± 6.2% | 25 ± 3% | 36 ± 5.3% | 3.9 ± 4.3% | -7 ± 3% | inhibition in vivo at 2 mg/kg [2, 13]: 42 ± 7.5%; inhibition in vivo at 2 mg/kg [2, 14]: 43 ± 7%; inhibition in vivo at 2 mg/kg [2, 15]: 18 ± 5%; reduction effects on the heart rate of SHR rats [2]: significant reduction effects on the heart rate; inhibition in vivo at 0.5 mg/kg [3]: 2.8 ± 5.3%; inhibition in vivo at 2 mg/kg [3]: 5.6 ± 3.2%; change in vivo at 0.5 mg/kg [3]: -1 ± 4%; change in vivo at 2 mg/kg [3]: 3% |
| CCOc1nc2cccc(C(=O)OCc3oc(=O)oc3C)c2n1Cc1ccc(-c2ccccc2-c2noc(=O)[nH]2)cc1 [Azilsartan medoxomil, reference compound] |  |  | -7 ± 3% | 30 ± 3.8% |  |  | 20% |  |  |  |  |  |  | 32 ± 3.5% | 34 ± 2.8% | 36 ± 3.6% | 8 ± 3% |  | 6.4 ± 2.1% | -5 ± 2% |  |
| CCOc1nc2cccc(C(=O)OCc3no[n+]([O-])c3CO[N+](=O)[O-])c2n1Cc1ccc(-c2ccccc2-c2noc(=O)[nH]2)cc1 [QR01034] | -12 ± 8% | 23 ± 1.9% | -15 ± 7% | 36 ± 4.8% | -21 ± 7% | 45 ± 6% | 25% | obviously superior to that of the Azilsartan medoxomil positive drug | close to that of Azilsartan medoxomil | 25 ± 8.1% | 28 ± 7.4% | 26 ± 5.1% | 19 ± 2% | 39 ± 7.5% | 39 ± 6.8% | 42 ± 5.9% | 15 ± 4% | 44 ± 8.6% | 5.1 ± 3.6% | 5% | inhibition in vivo at 2 mg/kg [2, 13]: 45 ± 7%; inhibition in vivo at 2 mg/kg [2, 14]: 46 ± 7.3%; inhibition in vivo at 2 mg/kg [2, 15]: 21 ± 3%; blood pressure reduction effect compared with Azilsartan medoxomil [2]: obviously superior to that of the Azilsartan medoxomil positive drug; reduction effects on the heart rate of SHR rats [2]: significant reduction effects on the heart rate; inhibition in vivo at 0.5 mg/kg [3]: 3.4 ± 2.6%; inhibition in vivo at 2 mg/kg [3]: 3.4 ± 5%; change in vivo at 0.5 mg/kg [3]: -2 ± 5%; change in vivo at 2 mg/kg [3]: -2 ± 5% |
| CCOc1nc2cccc(C(=O)OCc3no[n+]([O-])c3C#N)c2n1Cc1ccc(-c2ccccc2-c2noc(=O)[nH]2)cc1 [QR01036] | -12 ± 9% | 19 ± 3.5% | -18 ± 7% | 38 ± 4.2% | -25 ± 7% | 46 ± 5% | 24% | obviously superior to that of the Azilsartan medoxomil positive drug | close to that of Azilsartan medoxomil | 20 ± 5.3% | 24 ± 8.6% | 24 ± 5.9% | 14 ± 4% | 35 ± 7.8% | 35 ± 4.6% | 40 ± 7.8% | 25 ± 2% | 46 ± 9.2% | 5.2 ± 3.5% | -8 ± 2% | inhibition in vivo at 2 mg/kg [2, 13]: 45 ± 8.3%; inhibition in vivo at 2 mg/kg [2, 14]: 48 ± 7.2%; inhibition in vivo at 2 mg/kg [2, 15]: 21 ± 3%; blood pressure reduction effect compared with Azilsartan medoxomil [2]: obviously superior to that of the Azilsartan medoxomil positive drug; reduction effects on the heart rate of SHR rats [2]: significant reduction effects on the heart rate; inhibition in vivo at 0.5 mg/kg [3]: 2.8 ± 2.1%; inhibition in vivo at 2 mg/kg [3]: 6.3 ± 2%; change in vivo at 0.5 mg/kg [3]: -1 ± 6%; change in vivo at 2 mg/kg [3]: -5 ± 5% |
| CCOc1nc2cccc(C(=O)OC(C)OC(=O)OCc3nc(C)c(C)nc3C)c2n1Cc1ccc(-c2ccccc2-c2noc(=O)[nH]2)cc1 (stereo not drawn) [QR01019] | 12 ± 4% | 24 ± 4% | 25 ± 8% | 38 ± 3.8% | 28 ± 6% | 45 ± 7.5% | 26% | obviously superior to that of the Azilsartan medoxomil positive drug | close to that of Azilsartan medoxomil | 16 ± 6.2% | 15 ± 7.9% | 18 ± 4.5% | 20 ± 6% | 36 ± 6.3% | 38 ± 4.6% | 35 ± 6.7% | 18 ± 4% | 42 ± 4.8% | 4.2 ± 3.5% | -4 ± 6% | inhibition in vivo at 2 mg/kg [2, 13]: 46 ± 6.7%; inhibition in vivo at 2 mg/kg [2, 14]: 48 ± 8.6%; inhibition in vivo at 2 mg/kg [2, 15]: 29 ± 2%; blood pressure reduction effect compared with Azilsartan medoxomil [2]: obviously superior to that of the Azilsartan medoxomil positive drug; reduction effects on the heart rate of SHR rats [2]: significant reduction effects on the heart rate; inhibition in vivo at 0.5 mg/kg [3]: 2.4 ± 3%; inhibition in vivo at 2 mg/kg [3]: 4.5 ± 6.5%; change in vivo at 0.5 mg/kg [3]: -5 ± 5%; change in vivo at 2 mg/kg [3]: 8% |
